Measurements: the supplement of paper PMC10307832

Assays:
Experiment in all cases: relative viability (nuclei count vs DMSO), 5 days (fraction); higher = more cells survive
AZD5582 + Bortezomib = compound: C[C@@H](C(=O)N[C@@H](C1CCCCC1)C(=O)N2CCC[C@H]2C(=O)N[C@@H]3[C@@H](CC4=CC=CC=C34)OCC#CC#CCO[C@@H]5CC6=CC=CC=C6[C@@H]5NC(=O)[C@@H]7CCCN7C(=O)[C@H](C8CCCCC8)NC(=O)[C@H](C)NC)NC [AZD5582] + CC(C)C[C@H](NC(=O)[C@H](Cc1ccccc1)NC(=O)c1cnccn1)B(O)O [Bortezomib] (partner 0.002 µM)
Summary of the method: (§1)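 After 5 days of treatment, lung cancer cells in 1536-well plates were fixed and stained in a single step (final 0.05% Triton X-100, 1% formaldehyde, 1 ug/ml Hoechst) and their nuclei counted on 4× images. Treatment had been applied by pin tool the day after seeding as one drug alone or as a fixed anchor-drug dose with five library-drug doses (not always all listed) in √10 steps. Relative viability is the nuclei count of treated wells divided by that of vehicle wells, and values are medians of duplicate plates.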

AZD5582 + Dasatinib = compound: C[C@@H](C(=O)N[C@@H](C1CCCCC1)C(=O)N2CCC[C@H]2C(=O)N[C@@H]3[C@@H](CC4=CC=CC=C34)OCC#CC#CCO[C@@H]5CC6=CC=CC=C6[C@@H]5NC(=O)[C@@H]7CCCN7C(=O)[C@H](C8CCCCC8)NC(=O)[C@H](C)NC)NC [AZD5582] + Cc1nc(Nc2ncc(C(=O)Nc3c(C)cccc3Cl)s2)cc(N2CCN(CCO)CC2)n1 [Dasatinib] (partner 0.075 µM)
Summary of the method: as §1

[1] = compound: Cn1nnc2c(C(N)=O)ncn2c1=O [Temozolomide] + CC(=O)Nc1cccc(-n2c(=O)n(C3CC3)c(=O)c3c(Nc4ccc(I)cc4F)n(C)c(=O)c(C)c32)c1 [Trametinib] (partner 0.02 µM)
Summary of the method: as §1

Temozolomide + Foretinib = compound: Cn1nnc2c(C(N)=O)ncn2c1=O [Temozolomide] + COc1cc2c(Oc3ccc(NC(=O)C4(C(=O)Nc5ccc(F)cc5)CC4)cc3F)ccnc2cc1OCCCN1CCOCC1 [Foretinib] (partner 0.25 µM)
Summary of the method: as §1

Row | Cell Line | relative viability (AZD5582 + Bortezomib; first compound 0.001581 µM) | relative viability (AZD5582 + Bortezomib; first compound 0.005 µM) | relative viability (AZD5582 + Bortezomib; first compound 0.01581 µM) | relative viability (AZD5582 + Bortezomib; first compound 0.05 µM) | relative viability (AZD5582 + Dasatinib; first compound 0.001581 µM) | relative viability (AZD5582 + Dasatinib; first compound 0.01581 µM) | relative viability (AZD5582 + Dasatinib; first compound 0.05 µM) | relative viability ([1]; first compound 0.2 µM) | relative viability ([1]; first compound 0.6325 µM) | relative viability ([1]; first compound 2 µM) | relative viability ([1]; first compound 6.325 µM) | relative viability ([1]; first compound 20 µM) | relative viability (Temozolomide + Foretinib; first compound 0.2 µM) | relative viability (Temozolomide + Foretinib; first compound 0.6325 µM) | relative viability (Temozolomide + Foretinib; first compound 2 µM) | relative viability (Temozolomide + Foretinib; first compound 6.325 µM) | relative viability (Temozolomide + Foretinib; first compound 20 µM) | relative viability (AZD5582 + Dasatinib; first compound 0.005 µM)
1 | EPLC-272H | 0.833 | 0.396 | 0.87 | 0.277 | 0.0652 | 0.305 | 0.0573 | 0.241 | 0.279 | 0.338 | 0.324 | 0.277 | 0.537 | 0.697 | 0.628 | 0.712 | 0.497 | 
2 | NCI-H596 | 1.35 | 1.2 | 1.13 | 0.549 |  | 0.617 | 0.233 | 0.916 | 0.714 | 0.943 | 0.789 | 0.877 | 0.952 | 0.925 | 0.997 | 0.451 | 0.818 | 
3 | 201T | 1.1 | 1.16 | 1.07 | 1.17 | 0.557 | 0.541 | 0.589 | 0.707 | 0.72 | 0.725 | 0.681 | 0.714 | 0.901 | 1.2 | 1.14 | 1.08 | 1.03 | 0.577
4 | LU99A | 1.24 | 1.32 | 1.09 | 1.46 | 0.443 | 0.537 | 0.483 | 0.555 | 0.522 | 0.6 | 0.555 | 0.61 | 0.874 | 0.851 | 0.832 | 0.784 | 0.73 | 0.608
5 | CAL-12T | 0.777 | 0.746 | 0.448 | 0.668 | 0.261 | 0.363 | 0.349 | 0.285 | 0.369 | 0.337 | 0.418 | 0.268 | 1.13 | 1.09 | 1.15 | 1.05 | 1.13 | 0.333
6 | NCI-H2126 | 1.08 | 1.1 | 1.01 | 1.05 | 0.61 | 0.555 | 0.684 | 0.561 | 0.588 | 0.624 | 0.555 | 0.623 | 1.04 | 1.3 | 1.23 | 1.38 | 1.27 | 0.678
7 | BEN | 0.786 | 0.87 | 0.911 | 0.579 | 0.329 | 0.289 | 0.304 | 0.813 | 1.12 | 1.1 | 1 | 0.853 | 0.734 | 0.651 | 0.803 | 0.517 | 0.428 | 0.344
8 | NCI-H2405 | 0.972 | 1.01 | 0.88 | 0.947 | 0.199 | 0.155 | 0.226 | 0.585 | 0.699 | 0.798 | 0.569 | 0.597 | 0.992 | 1.07 | 1.09 | 1.01 | 0.994 | 0.24
9 | NCI-H727 | 0.761 | 0.932 | 0.851 | 1.04 | 0.317 | 0.505 | 0.274 |  | 0.426 | 0.397 | 0.435 | 0.403 | 0.835 | 0.791 | 0.99 | 0.705 | 0.702 | 0.319
10 | NCI-H2023 | 0.934 | 1.1 | 0.721 | 0.716 | 0.521 | 0.553 | 0.49 | 0.568 | 0.635 | 0.468 | 0.497 | 0.518 | 0.825 | 0.749 | 0.847 | 0.68 | 0.848 | 0.581
11 | COR-L23 | 0.942 | 1.02 | 1.07 | 1.09 | 0.432 | 0.477 | 0.53 | 0.624 | 0.614 | 0.641 | 0.534 | 0.545 | 1.12 | 1.06 | 1.01 | 0.961 | 0.911 | 0.647
12 | EMC-BAC-2 | 1.01 | 1.04 | 1.02 | 0.354 | 0.332 | 0.31 | 0.241 | 0.906 | 0.891 | 0.916 | 0.891 | 0.85 | 0.947 | 1.07 | 1.02 | 0.998 | 0.973 | 0.327
13 | A-427 | 0.92 | 0.954 | 0.938 | 0.891 | 0.593 | 0.683 | 0.384 | 0.807 | 0.711 | 0.69 | 0.502 | 0.458 | 0.992 | 0.981 | 1.03 | 0.66 | 0.486 | 0.638
14 | NCI-H2009 | 0.838 | 1.13 | 0.61 | 0.9 | 0.297 | 0.268 | 0.307 | 0.279 | 0.273 | 0.389 | 0.268 | 0.265 | 1.23 | 1.21 | 1.24 | 1.2 | 1.3 | 0.382
15 | NCI-H23 | 0.84 | 1.14 | 0.913 | 0.676 | 0.605 | 0.539 | 0.269 | 0.353 | 0.348 | 0.427 | 0.381 | 0.358 | 1.02 | 0.979 | 0.97 | 0.778 | 1.05 | 0.644
16 | NCI-H2085 | 0.953 | 1.19 | 0.933 | 1.17 | 0.265 | 0.282 | 0.355 | 0.527 | 0.438 | 0.621 | 0.513 | 0.581 | 0.847 | 1.04 | 1.05 | 0.939 | 0.749 | 0.366
17 | NCI-H1755 | 0.925 | 1.02 | 0.936 | 1.02 | 0.398 | 0.356 | 0.363 | 0.81 | 0.761 | 0.718 | 0.664 | 0.549 | 0.979 | 0.93 | 0.908 | 0.873 | 0.722 | 0.456
